Results reported in patent US9314508B2, “Use of somatostatin analogs in control of hypoglycemia” (priority 2008, dated 2016).

What was measured:
patients = patients with hypoglycemia receiving octreotide; cited from earlier work
[1] = system: adult male Lewis rats fasted for 24 h; assay: glyburide induced hypoglycemia in fasted rats, plasma glucose; format: in vivo, rat; details: for glucose −30 min / glucose 1 h / glucose 3 h / glucose 6 h / glucose −24 h: fasted animals; for glucose −30 min: 30 min before application (baseline); for glucose 1 h: 1 h after application; for glucose 3 h: 3 h after application; for glucose 6 h: 6 h after application; for glucose −24 h: 24 h before application (baseline)
Experimental: Food restriction for 24 h reduced plasma glucose concentration in all treatment groups from about 8 mmol/l to approximately 6 mmol/l. 30 min before the application of the compound (FIG. 1, Table 1).

fed rats = assay: glyburide effect on plasma glucose in fed rats; format: in vivo, rat; details: for glucose 1 h / glucose 3 h / glucose 6 h / glucose −24 h / glucose −30 min: fed animals; for glucose 1 h: 1 h after application; for glucose 3 h: 3 h after application; for glucose 6 h: 6 h after application; for glucose −24 h: 24 h before application (baseline); for glucose −30 min: 30 min before application (baseline)
Experimental: 30 min before the application of the compound (FIG. 1, Table 1).

[2] = Glyburide 30 mg/kg p.o. + 10 μg/kg s.c.
[3] = Glyburide 30 mg/kg p.o. + 30 μg/kg s.c.

| Compound | glucose −30 min [1, 2] [mmol/L] | glucose 1 h [1, 2] [mmol/L] | glucose 3 h [1, 2] [mmol/L] | glucose 6 h [1, 2] [mmol/L] | glucose −24 h [1, 2] [mmol/L] | glucose −30 min [1, 3] [mmol/L] | glucose 1 h [1, 3] [mmol/L] | glucose 3 h [1, 3] [mmol/L] | glucose 6 h [1, 3] [mmol/L] | glucose −24 h [1, 3] [mmol/L] | glucose 1 h (fed rats; [2]) [mmol/L] | glucose 3 h (fed rats; [2]) [mmol/L] | glucose 6 h (fed rats; [2]) [mmol/L] | glucose −24 h (fed rats; [2]) [mmol/L] | glucose 1 h (fed rats; [3]) [mmol/L] | glucose 3 h (fed rats; [3]) [mmol/L] | glucose 6 h (fed rats; [3]) [mmol/L] | glucose −24 h (fed rats; [3]) | also measured |
| --- | --- | --- | --- | --- | --- | --- | --- | --- | --- | --- | --- | --- | --- | --- | --- | --- | --- | --- | --- |
| C[C@@H](O)[C@@H]1NC(=O)[C@H](CCCCN)NC(=O)[C@@H](Cc2c[nH]c3ccccc23)NC(=O)[C@H](Cc2ccccc2)NC(=O)[C@@H](NC(=O)[C@H](N)Cc2ccccc2)CSSC[C@@H](C(=O)N[C@H](CO)[C@@H](C)O)NC1=O [octreotide] | 5.75 ± 0.21 | 4.27 ± 0.07 | 4.28 ± 0.14 | 4.28 ± 0.23 | 8.53 ± 0.27 | 6.43 ± 0.49 | 4.22 ± 0.14 | 5.83 ± 0.28 | 4.83 ± 0.24 | 8.63 ± 0.19 | 7.27 ± 0.15 | 5.80 ± 0.24 | 6.00 ± 0.44 | 8.17 ± 0.38 | 7.48 ± 0.25 | 5.63 ± 0.24 | 6.10 ± 0.43 | 8.07 + 0.43 mmol/L | serum glucose level versus controls (patients): higher than that in controls; time within which the effect on serum glucose waned (patients): ≤ 8 h; prevention of the glyburide induced hypoglycemia ([1]; fasted rats, Glyburide 30 mg/kg p.o. + 10 or 30 μg/kg s.c., after 1 h): not effective; effect on glucose levels in glyburide treated rats ([1]; fasted rats, highest dose (30 μg/kg s.c.), after 3 and 6 h): only a small tendency to increase glucose levels |
| cyclo[{(4-(NH2—C2H4—NH—CO—O—)Pro}-Phg-DTrp-Lys-Tyr(4-Bzl)-Phe] [pasireotide] | 5.88 ± 0.16 | 7.00 ± 0.42 | 6.22 ± 0.42 | 6.48 ± 0.52 | 8.07 ± 0.45 | 6.10 ± 0.23 | 6.98 ± 0.59 | 7.55 ± 0.47 | 7.58 ± 0.47 | 7.93 ± 0.52 | 13.48 ± 0.65 | 12.42 ± 0.39 | 6.85 ± 0.23 | 8.65 ± 0.18 | 13.47 ± 0.91 | 13.13 ± 0.69 | 9.12 ± 0.47 | 8.85 ± 0.25 mmol/L | effect on plasma glucose in glyburide treated rats ([1]; fasted rats, Glyburide 30 mg/kg p.o. + 10 or 30 μg/kg s.c., 1, 3 and 6 h after the application): plasma glucose increased to levels of untreated fasted rats or above; glucose −30 min (fed rats; [2]): 8.53 ± 0.34 mmol/L; glucose −30 min (fed rats; [3]): 8.10 ± 0.29 mmol/L; effect on plasma glucose (fed rats; fed rats pretreated with glyburide): significant but transit effect |
| COc1ccc(Cl)cc1C(=O)NCCc1ccc(S(=O)(=O)NC(=O)NC2CCCCC2)cc1 [Glyburide] |  |  |  |  |  |  |  |  |  |  |  |  |  |  |  |  |  |  | glucose −30 min ([1]; Glyburide 30 mg/kg p.o. alone): 6.07 ± 0.39 mmol/L; glucose 1 h ([1]; Glyburide 30 mg/kg p.o. alone): 5.48 ± 0.15 mmol/L; glucose 3 h ([1]; Glyburide 30 mg/kg p.o. alone): 4.17 ± 0.16 mmol/L; glucose 6 h ([1]; Glyburide 30 mg/kg p.o. alone): 3.53 ± 0.13 mmol/L; glucose −24 h ([1]; Glyburide 30 mg/kg p.o. alone): 7.87 ± 0.34 mmol/L; minimum plasma glucose level ([1]; fasted rats, Glyburide 30 mg/kg p.o. alone, 6 h after the application): 3.5 mmol/L; glucose −30 min (fed rats; Glyburide 30 mg/kg p.o. alone): 8.72 ± 0.14 mmol/L; glucose 1 h (fed rats; Glyburide 30 mg/kg p.o. alone): 7.42 ± 0.18 mmol/L; glucose 3 h (fed rats; Glyburide 30 mg/kg p.o. alone): 5.33 ± 0.16 mmol/L; glucose 6 h (fed rats; Glyburide 30 mg/kg p.o. alone): 6.27 ± 0.16 mmol/L; glucose −24 h (fed rats; Glyburide 30 mg/kg p.o. alone): 8.65 ± 0.11 mmol/L; hypoglycemic effect (fed rats; fed rats, glyburide alone): not very pronounced |
